{"source": "patent US20190041383A1", "about": "“METHOD FOR PREPARING SENESCENT MELANOCYTES, CELLS PREPARED BY METHOD, AND METHOD FOR SCREENING FOR SENESCENCE-ALLEVIATING MATERIAL BY USING CELLS” (AMOREPACIFIC CORPORATION, priority 2015, published 2019)", "format_in_all_cases": "cell-based, human", "key": {"p16 and p21": {"system": "p16 and p21", "test": "p16 and p21 mRNA expression (Q-PCR) in senescent melanocytes after treatment with whitening material", "details": "treated for 2 weeks from 48 h after final UVB irradiation, four times at an interval of 3 days; p<0.05 / p<0.01 (FIG. 6)", "description": "Human primary melanocytes (Life Technologies, CA, USA) were cultured in a 5% CO2 incubator at room temperature by using M-254 medium (Gibco BRL, NY, USA) supplemented with human melanocyte growth supplement (HMGS) (Gibco BRL, NY, USA), placed on a 100 mm culture dish so that the number of cells was 2×10^5, allowed to attach to the dish wall for the night, and irradiated with UVB at a strength of 11 mJ/cm^2, 20 mJ/cm^2, and 30 mJ/cm^2 two times at an interval of 24 hours. cDNA was prepared by obtaining RNA from cells 2 weeks after being irradiated with UVB at a strength of 20 mJ/cm^2 two times at an interval of 24 hours, and a change in mRNA level was measured by Q-PCR (Applied biosystems, 7500 Fast) by using p16 and p21 specific primers. As the Q-PCR experiment, a cycle at 95° C. for 15 seconds and at 60° C. for 60 seconds was repeatedly conducted 40 times in total, and the relative value of an increase in gene expression as compared to that of a control group was measured."}, "[1]": {"system": "melanocytes irradiated with UVB at 20 mJ/cm^2 two times (senescent melanocytes)", "test": "β-galactosidase activity in senescent melanocytes after treatment with whitening material", "details": "30 μM, medium changed every 3 days (4 times) from 48 h after UVB, read after two weeks, vs vehicle (DMSO) control; p<0.05 (FIG. 5a)", "description": "Human primary melanocytes (Life Technologies, CA, USA) were cultured in a 5% CO2 incubator at room temperature by using M-254 medium (Gibco BRL, NY, USA) supplemented with human melanocyte growth supplement (HMGS) (Gibco BRL, NY, USA), placed on a 100 mm culture dish so that the number of cells was 2×10^5, allowed to attach to the dish wall for the night, and irradiated with UVB at a strength of 11 mJ/cm^2, 20 mJ/cm^2, and 30 mJ/cm^2 two times at an interval of 24 hours.\nAfter UVB irradiation under the conditions of Example 1, β-galactosidase activity, which is a representative senescence index of cell, has been measured and it has been confirmed that the activity increased in proportion to the strength of UVB irradiated (FIG. 3a).\nThe cells determined in the most proper senescent state through the above-described Examples, namely, the cells prepared by irradiating the melanocytes with UVB at a strength of 20 mJ/cm^2 two times at an interval of 24 hours were cultured from the 48th hour after the UV ray irradiation in a medium containing Material A (melasolv, 30 μM) of a representative whitening material while changing the medium at an interval of 3 days (4 times in total). After two weeks, the β-galactosidase activity and the melanin content were compared to those of a control group (vehicle (DMSO) treated) (FIG. 5). […]"}, "[2]": {"system": "melanocytes irradiated with UVB at 20 mJ/cm^2 two times (senescent pigmentation model)", "test": "melanin content in senescent melanocytes after treatment with whitening material", "details": "30 μM, medium changed every 3 days (4 times) from 48 h after UVB, read after two weeks, vs vehicle (DMSO) control; p<0.05 (FIG. 5b)", "description": "Human primary melanocytes (Life Technologies, CA, USA) were cultured in a 5% CO2 incubator at room temperature by using M-254 medium (Gibco BRL, NY, USA) supplemented with human melanocyte growth supplement (HMGS) (Gibco BRL, NY, USA), placed on a 100 mm culture dish so that the number of cells was 2×10^5, allowed to attach to the dish wall for the night, and irradiated with UVB at a strength of 11 mJ/cm^2, 20 mJ/cm^2, and 30 mJ/cm^2 two times at an interval of 24 hours. The melanocytes were irradiated with UVB at a strength of 11 mJ/cm^2, 20 mJ/cm^2, and 30 mJ/cm^2, respectively, two times, cultured for 2 weeks, detached from the culture dish and counted, and the same number of cells were collected in a microtube, disrupted by adding RIPA assay buffer (Millipore, 20-188) thereto, and subjected to the centrifugation at 13,500 rpm for 30 minutes to obtain a precipitate. The precipitate was dissolved in a 1N sodium hydroxide (NaOH) solution, and the colors were compared to one another (FIG. 4a), and the absorbance was measured at 450 nm to compare the content of melanin (FIG. 4b). […]"}}, "data": [{"smiles": "COc1cc(/C=C/C(=O)Oc2cc(C)ccc2C(C)C)cc(OC)c1OC", "note": "[Material A, melasolv]", "values": [{"measurement": "increased gene expression (p16 and p21)", "setting": "p16 and p21", "result": "significantly inhibited"}, {"measurement": "β-galactosidase activity", "setting": "[1]", "result": "decreases"}, {"measurement": "melanin content", "setting": "[2]", "result": "significantly decreases to the level of that of the control group"}]}]}
